Test results taken from patent US12103919B2, “3-(5-oxy)-1-oxoisoindolin-2-yl)piperidine-2,6-dione derivatives and uses thereof” (NOVARTIS AG, priority 2021, dated 2024).
Like-named read-outs stand apart in the source and are kept apart here.

Biological target: T1, WIZ (Homo sapiens, UniProt O95785+Q96SW2)
T1 construct: expressed in transfected cells
Assay: Quantification of WIZ protein levels in HiBit tag fusion protein assay (293T cells)
Format: cell-based
Design: Dmax: dose or concentration left out as unconfirmed
Settings: for remaining activity at 25 µM / Dmax at 25 µM / Dmax: HEK-293T; for remaining activity at 25 µM: read-out: WIZ Amax; for DC50: WIZ HiBit assay in 293T cells, about 18 hours, 10-point 5-fold dilution, top 25 μM, read-out: WIZ AC50; for Dmax at 25 µM: 100 − Amax; for Dmax at 25 µM / Dmax: read-out: % degradation of WIZ (100 − Amax)
Summary of the method: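 293T cells stably carrying a single-copy HiBit-WIZ fusion were exposed to compounds for about 18 hours at 37° C., top concentration 25 μM, 10-point 5-fold series. Lysates were complemented with LgBit and luminescence was read. Amax is the DMSO-normalized, curve-fitted percentage of WIZ-HiBit remaining at 25 uM.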

[1] = DMSO-normalized, curve-fitted percentage of WIZ-HiBit remaining at 25 uM

T1 sequence (O95785 whole entry): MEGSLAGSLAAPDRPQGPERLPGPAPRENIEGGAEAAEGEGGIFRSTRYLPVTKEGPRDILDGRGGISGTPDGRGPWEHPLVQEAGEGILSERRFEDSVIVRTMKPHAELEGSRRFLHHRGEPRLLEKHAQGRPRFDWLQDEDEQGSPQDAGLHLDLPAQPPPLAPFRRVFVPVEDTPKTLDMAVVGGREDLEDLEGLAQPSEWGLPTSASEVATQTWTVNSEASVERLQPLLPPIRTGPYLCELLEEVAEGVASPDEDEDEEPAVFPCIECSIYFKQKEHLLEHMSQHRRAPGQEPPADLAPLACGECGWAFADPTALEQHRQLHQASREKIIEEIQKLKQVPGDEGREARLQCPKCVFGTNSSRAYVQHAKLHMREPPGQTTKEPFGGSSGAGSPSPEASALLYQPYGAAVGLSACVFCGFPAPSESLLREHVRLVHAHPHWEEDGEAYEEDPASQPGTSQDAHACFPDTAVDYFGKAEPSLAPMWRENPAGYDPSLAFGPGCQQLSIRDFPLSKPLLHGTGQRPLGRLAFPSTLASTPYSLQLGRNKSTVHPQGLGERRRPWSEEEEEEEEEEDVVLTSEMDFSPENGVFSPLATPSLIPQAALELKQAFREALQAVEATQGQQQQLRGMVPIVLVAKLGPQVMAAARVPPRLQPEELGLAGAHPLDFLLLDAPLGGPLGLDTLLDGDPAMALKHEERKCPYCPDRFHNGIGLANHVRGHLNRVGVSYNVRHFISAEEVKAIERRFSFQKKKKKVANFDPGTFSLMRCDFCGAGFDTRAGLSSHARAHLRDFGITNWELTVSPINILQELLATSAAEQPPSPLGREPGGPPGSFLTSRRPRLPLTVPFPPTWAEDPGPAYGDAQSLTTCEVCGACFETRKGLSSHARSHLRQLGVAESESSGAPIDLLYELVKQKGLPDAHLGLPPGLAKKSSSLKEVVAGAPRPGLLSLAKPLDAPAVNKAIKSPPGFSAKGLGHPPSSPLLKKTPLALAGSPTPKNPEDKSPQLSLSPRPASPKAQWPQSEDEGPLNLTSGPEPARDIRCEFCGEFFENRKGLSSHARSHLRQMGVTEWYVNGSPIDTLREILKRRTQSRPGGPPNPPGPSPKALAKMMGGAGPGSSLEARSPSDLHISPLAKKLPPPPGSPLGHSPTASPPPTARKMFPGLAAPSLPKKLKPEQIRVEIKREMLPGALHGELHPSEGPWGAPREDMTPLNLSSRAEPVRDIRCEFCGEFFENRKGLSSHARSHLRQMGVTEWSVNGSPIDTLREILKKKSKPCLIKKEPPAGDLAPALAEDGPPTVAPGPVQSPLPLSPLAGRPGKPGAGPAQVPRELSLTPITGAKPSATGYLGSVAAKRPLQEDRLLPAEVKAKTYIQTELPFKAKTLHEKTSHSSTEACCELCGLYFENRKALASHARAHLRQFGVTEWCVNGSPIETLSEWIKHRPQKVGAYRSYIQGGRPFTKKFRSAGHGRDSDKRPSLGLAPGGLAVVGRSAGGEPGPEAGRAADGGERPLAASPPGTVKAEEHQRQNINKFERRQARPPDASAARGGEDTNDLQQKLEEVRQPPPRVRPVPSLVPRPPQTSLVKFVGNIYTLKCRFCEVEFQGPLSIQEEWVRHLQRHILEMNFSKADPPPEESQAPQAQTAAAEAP
T1 sequence (Q96SW2 whole entry): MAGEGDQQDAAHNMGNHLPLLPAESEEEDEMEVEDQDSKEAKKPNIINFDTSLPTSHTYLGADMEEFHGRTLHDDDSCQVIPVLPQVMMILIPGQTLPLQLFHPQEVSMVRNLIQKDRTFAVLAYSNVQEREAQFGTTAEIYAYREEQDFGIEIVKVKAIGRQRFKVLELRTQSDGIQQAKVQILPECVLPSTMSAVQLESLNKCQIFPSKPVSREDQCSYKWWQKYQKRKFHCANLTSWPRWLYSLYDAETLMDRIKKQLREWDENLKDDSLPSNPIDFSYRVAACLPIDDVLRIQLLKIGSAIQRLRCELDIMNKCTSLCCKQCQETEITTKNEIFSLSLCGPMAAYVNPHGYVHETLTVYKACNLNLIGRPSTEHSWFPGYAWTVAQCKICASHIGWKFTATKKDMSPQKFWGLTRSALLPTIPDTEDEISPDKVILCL
T1 sequence (Q16531 whole entry partner): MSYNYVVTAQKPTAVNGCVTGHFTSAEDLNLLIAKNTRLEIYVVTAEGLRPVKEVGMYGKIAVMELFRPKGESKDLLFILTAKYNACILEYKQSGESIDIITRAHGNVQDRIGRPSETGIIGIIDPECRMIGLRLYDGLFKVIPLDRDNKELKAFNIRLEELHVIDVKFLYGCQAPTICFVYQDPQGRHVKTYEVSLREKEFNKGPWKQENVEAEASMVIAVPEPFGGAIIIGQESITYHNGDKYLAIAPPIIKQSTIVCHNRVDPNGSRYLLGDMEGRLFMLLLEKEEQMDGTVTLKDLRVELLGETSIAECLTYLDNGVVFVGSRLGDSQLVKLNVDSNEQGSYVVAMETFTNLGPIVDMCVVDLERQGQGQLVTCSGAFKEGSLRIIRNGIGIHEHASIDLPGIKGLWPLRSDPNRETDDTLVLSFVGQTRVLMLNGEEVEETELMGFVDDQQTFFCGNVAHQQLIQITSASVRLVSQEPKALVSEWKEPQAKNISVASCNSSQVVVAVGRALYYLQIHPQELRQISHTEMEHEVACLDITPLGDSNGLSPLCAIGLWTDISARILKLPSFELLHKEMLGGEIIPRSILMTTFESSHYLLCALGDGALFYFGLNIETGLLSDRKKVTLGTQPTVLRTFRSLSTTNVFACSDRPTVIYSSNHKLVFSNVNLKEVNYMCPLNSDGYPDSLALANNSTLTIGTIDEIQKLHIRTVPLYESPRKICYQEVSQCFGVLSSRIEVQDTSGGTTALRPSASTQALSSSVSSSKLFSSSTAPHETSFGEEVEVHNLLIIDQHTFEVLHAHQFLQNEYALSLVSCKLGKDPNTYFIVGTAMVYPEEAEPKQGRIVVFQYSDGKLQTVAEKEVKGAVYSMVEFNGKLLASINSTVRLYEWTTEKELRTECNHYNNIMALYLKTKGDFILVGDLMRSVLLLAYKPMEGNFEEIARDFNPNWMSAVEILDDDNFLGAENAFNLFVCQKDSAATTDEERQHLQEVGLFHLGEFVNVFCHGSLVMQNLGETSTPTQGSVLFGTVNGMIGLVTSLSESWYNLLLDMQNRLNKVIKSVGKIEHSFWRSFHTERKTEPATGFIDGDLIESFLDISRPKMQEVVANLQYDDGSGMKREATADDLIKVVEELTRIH

| Compound | remaining activity at 25 µM [1] [%] | DC50 [nM] | Dmax at 25 µM [%] | Dmax [%] | remaining activity at 25 µM [%] |
| --- | --- | --- | --- | --- | --- |
| CCOC(=O)N1C[C@H](OCC)C[C@@H](Oc2ccc3c(c2)CN(C2CCC(=O)NC2=O)C3=O)C1 (stereo partly drawn) [Example 69, ethyl (3R,5R)-3-((2-(2,6-dioxopiperidin-3-yl)-1-oxoisoindolin-5-yl)oxy)-5-ethoxypiperidine-1-carboxylate] | 106 | > 25000 | – | – | – |
| CCO[C@@H]1C[C@@H](Oc2ccc3c(c2)CN(C2CCC(=O)NC2=O)C3=O)CN(C(C)=O)C1 (stereo partly drawn) [Example 70, 3-(5-(((3R,5R)-1-acetyl-5-ethoxypiperidin-3-yl)oxy)-1-oxoisoindolin-2-yl)piperidine-2,6-dione] | 107 | > 25000 | – | – | – |
| CCO[C@@H]1C[C@@H](Oc2ccc3c(c2)CN(C2CCC(=O)NC2=O)C3=O)CN(S(C)(=O)=O)C1 (stereo partly drawn) [Example 71, 3-(5-(((3R,5R)-5-ethoxy-1-(methylsulfonyl)piperidin-3-yl)oxy)-1-oxoisoindolin-2-yl)piperidine-2,6-dione] | 39 | 45.3 | 61 | – | – |
| CCO[C@@H]1C[C@@H](Oc2ccc3c(c2)CN(C2CCC(=O)NC2=O)C3=O)CN(CC(C)C)C1 (stereo partly drawn) [Example 72, 3-(5-(((3R,5R)-5-ethoxy-1-isobutylpiperidin-3-yl)oxy)-1-oxoisoindolin-2-yl)piperidine-2,6-dione] | 40.1 | 41.5 | 59.9 | – | – |
| CCO[C@@H]1C[C@@H](Oc2ccc3c(c2)CN(C2CCC(=O)NC2=O)C3=O)CN(C2CCC2)C1 (stereo partly drawn) [Example 73, 3-(5-(((3R,5R)-1-cyclobutyl-5-ethoxypiperidin-3-yl)oxy)-1-oxoisoindolin-2-yl)piperidine-2,6-dione] | – | 23.8 | – | 62.8 | 37.2 |
| CCO[C@@H]1C[C@@H](Oc2ccc3c(c2)CN(C2CCC(=O)NC2=O)C3=O)CN(C(C)C)C1 (stereo partly drawn) [Example 74, 3-(5-(((3R,5R)-5-ethoxy-1-isopropylpiperidin-3-yl)oxy)-1-oxoisoindolin-2-yl)piperidine-2,6-dione] | 21.9 | 8.9 | 78.1 | – | – |
| C[C@@H]1C[C@@H](Oc2ccc3c(c2)CN(C2CCC(=O)NC2=O)C3=O)CN(C)C1 (stereo partly drawn) [Example 75-2, 3-(5-(((3R,5R)-1,5-dimethylpiperidin-3-yl)oxy)-1-oxoisoindolin-2-yl)piperidine-2,6-dione] | – | 4 | – | 83.5 | 16.5 |
| CC(C)N1C[C@H](C)C[C@@H](Oc2ccc3c(c2)CN(C2CCC(=O)NC2=O)C3=O)C1 (stereo partly drawn) [Example 77, 3-(5-(((3R,5R)-1-isopropyl-5-methylpiperidin-3-yl)oxy)-1-oxoisoindolin-2-yl)piperidine-2,6-dione] | 13.6 | 1.1 | 86.5 | – | – |
| C[C@@H]1C[C@@H](Oc2ccc3c(c2)CN(C2CCC(=O)NC2=O)C3=O)CN(C2CCC2)C1 (stereo partly drawn) [Example 78, 3-(5-(((3R,5R)-1-cyclobutyl-5-methylpiperidin-3-yl)oxy)-1-oxoisoindolin-2-yl)piperidine-2,6-dione] | – | 0.5 | – | 85.7 | 14.3 |
| CC(C)CN1C[C@H](C)C[C@@H](Oc2ccc3c(c2)CN(C2CCC(=O)NC2=O)C3=O)C1 (stereo partly drawn) [Example 79, 3-(5-(((3R,5R)-1-isobutyl-5-methylpiperidin-3-yl)oxy)-1-oxoisoindolin-2-yl)piperidine-2,6-dione] | 17.3 | 1.7 | 82.7 | – | – |
| C[C@@H]1C[C@@H](Oc2ccc3c(c2)CN(C2CCC(=O)NC2=O)C3=O)CN(S(C)(=O)=O)C1 (stereo partly drawn) [Example 80, 3-(5-(((3R,5R)-5-methyl-1-(methylsulfonyl)piperidin-3-yl)oxy)-1-oxoisoindolin-2-yl)piperidine-2,6-dione] | 28.6 | 23.4 | 71.4 | – | – |
| CC(C)N1C[C@H](Oc2ccc3c(c2)CN(C2CCC(=O)NC2=O)C3=O)CC[C@@H]1C (stereo partly drawn) [Example 81, 3-(5-(((3R,6S)-1-isopropyl-6-methylpiperidin-3-yl)oxy)-1-oxoisoindolin-2-yl)piperidine-2,6-dione] | 10.7 | 2 | 89.3 | – | – |
| C[C@H]1CC[C@@H](Oc2ccc3c(c2)CN(C2CCC(=O)NC2=O)C3=O)CN1C1CCC1 (stereo partly drawn) [Example 82, 3-(5-(((3R,6S)-1-cyclobutyl-6-methylpiperidin-3-yl)oxy)-1-oxoisoindolin-2-yl)piperidine-2,6-dione] | – | 0.5 | – | 85 | 15 |
| CCOC(=O)N1C[C@H](Oc2ccc3c(c2)CN(C2CCC(=O)NC2=O)C3=O)CC[C@@H]1C (stereo partly drawn) [Example 83, ethyl (2S,5R)-5-((2-(2,6-dioxopiperidin-3-yl)-1-oxoisoindolin-5-yl)oxy)-2-methylpiperidine-1-carboxylate] | 96.8 | > 25000 | 3.24 | – | – |
| CNC(=O)N1C[C@H](Oc2ccc3c(c2)CN(C2CCC(=O)NC2=O)C3=O)CC[C@@H]1C (stereo partly drawn) [Example 84, (2S,5R)-5-((2-(2,6-dioxopiperidin-3-yl)-1-oxoisoindolin-5-yl)oxy)-N,2-dimethylpiperidine-1-carboxamide] | 81.7 | 1170 | 18.3 | – | – |
| C[C@H]1CC[C@@H](Oc2ccc3c(c2)CN(C2CCC(=O)NC2=O)C3=O)CN1S(C)(=O)=O (stereo partly drawn) [Example 85, 3-(5-(((3R,6S)-6-methyl-1-(methylsulfonyl)piperidin-3-yl)oxy)-1-oxoisoindolin-2-yl)piperidine-2,6-dione] | 65.7 | 67.2 | 34.3 | – | – |
| CC(=O)N1C[C@H](Oc2ccc3c(c2)CN(C2CCC(=O)NC2=O)C3=O)CC[C@@H]1C (stereo partly drawn) [Example 86, 3-(5-(((3R,6S)-1-acetyl-6-methylpiperidin-3-yl)oxy)-1-oxoisoindolin-2-yl)piperidine-2,6-dione] | 76 | > 25000 | 24 | – | – |
| CCC[C@H]1CC[C@@H](Oc2ccc3c(c2)CN(C2CCC(=O)NC2=O)C3=O)CN1 (stereo partly drawn) [Example 87-1, 3-(1-oxo-5-(((3R,6S)-6-propylpiperidin-3-yl)oxy)isoindolin-2-yl)piperidine-2,6-dione] | – | 35.9 | – | 71.4 | 28.6 |
| CCC[C@H]1CC[C@@H](Oc2ccc3c(c2)CN(C2CCC(=O)NC2=O)C3=O)CN1CC (stereo partly drawn) [Example 87-2, 3-(5-(((3R,6S)-1-ethyl-6-propylpiperidin-3-yl)oxy)-1-oxoisoindolin-2-yl)piperidine-2,6-dione] | – | 0.6 | – | 89.7 | 10.3 |
| CC1(C)CCC(Oc2ccc3c(c2)CN(C2CCC(=O)NC2=O)C3=O)CN1 (stereo not shown) [Example 88-1, 3-(5-((6,6-dimethylpiperidin-3-yl)oxy)-1-oxoisoindolin-2-yl)piperidine-2,6-dione] | – | 134 | – | 50 | 50 |
| CCN1CC(Oc2ccc3c(c2)CN(C2CCC(=O)NC2=O)C3=O)CCC1(C)C (stereo not shown) [Example 88-2, 3-(5-((1-ethyl-6,6-dimethylpiperidin-3-yl)oxy)-1-oxoisoindolin-2-yl)piperidine-2,6-dione] | – | 0.7 | – | 79.5 | 20.5 |
